Experiments:
[1] = tested on: inducing peptide construct; experiment: ELISA of serum IgG antibody to the inducing (homologous) peptide construct in immunized rats; type: in vivo, Sprague Dawley rats; conditions: for immunogenicity (percentage of animals responding and titer of responding sera): FIG. 1
Procedure: (§1) Immunogenicity of Peptides: Sprague Dawley CD strain 43 day-old male rats (Charles River Laboratories) were used for injection. Six groups of 4-5 rats were injected subcutaneously in the vicinity of the salivary glands with 50 μg each of GGY, AND, SAND or CAT peptide constructs, 10 μg of GTF, or sham-immunized with buffer alone. The initial injection included complete Freund adjuvant (CFA; Difco); two subsequent injections at 21-day intervals included incomplete Freund adjuvant. Animals were bled prior to injection and 14-21 days after each injection. Serum from coagulated and centrifuged blood was stored frozen at −20° C. until use.
(§2) ELISA: Serum IgG and salivary IgA antibodies were tested by enzyme-linked immunosorbent assay (ELISA). Polystyrene microtiter plates (Flow Laboratories) were coated with […] of each peptide construct or 0.5 μg of S. sobrinus GTF. Antibody activity was then measured by incubation with 1:100 to 1:10^6 dilutions of sera, or 1:4 to 1:32 dilutions of saliva. Plates were then developed for IgG antibody rabbit anti-rat IgG followed in sequence by alkaline phosphatase goat anti-rabbit IgG (Biosource Inc.) and p-nitrophenylphosphate (Sigma). A mouse monoclonal reagent to rat α chain (Zymed, South San Francisco, Calif.) was used with biotinylated goat anti-mouse IgG (TAGO, Inc., Burlingame, Calif.) and avidin-alkaline phosphatase (Cappel) to reveal levels of salivary IgA antibody to peptides. Reactivity was recorded as absorbance (A405 nm) in a micro plate reader (Biotek Instruments). Data are reported as absorbance (A405 nm), reciprocal titer, or as ELISA units (EU) which were calculated relative to the levels of appropriate reference sera or salivas from Sprague Dawley rats thrice immunized with the respective peptide construct. Dilutions of 1:12,800 and 1:6,400 (A405 nm approximately 1.0) were considered 100 EU for serum IgG to the GGY and AND constructs, respectively. Dilutions of 1:32 were considered 100 EU for salivary IgA to both GGY and AND constructs.
(§3) Two experiments were performed. Groups (n=11-12) of 23-26 day-old rats were subcutaneously (sc) injected in the salivary gland vicinity with (experiment 1) GGY (50 μg), AND (50 μg) or GTF(10 μg), or phosphate buffered saline (control animals), or (experiment 2) GGY (50 ;μg) or PBS. Each antigen was incorporated with complete Freund adjuvant in both experiments. Eight (experiment 1) or 14 (experiment 2) days later, rats were reinjected with PBS or with the same antigen and dose in incomplete Freund adjuvant. Six (experiment 1) or 12 (experiment 2) days after the second injection, animals were bled from the tail vein, and saliva was collected after injection of pilocarpine (1.0 mg/100 g body weight). Fourteen (experiment 1) or 11 (experiment 2) days after the second injection, all rats were orally infected with approximately 10^8 S. mutans for 3 consecutive days. Both experiments were terminated 63 days after initial infection.
(§4) Two experiments were performed to measure the effect of immunization with the eight-branched GGY and AND peptide constructs on experimental dental caries in the Sprague-Dawley rat. In the first experiment, groups of rats were immunized with GGY or AND peptide constructs. In the second experiment groups of rats were immunized only with the GGY peptide construct. Pre-infection sera and salivas were collected for antibody measurement in 39 day old rats in experiment 1 (6 days after the second injection) and 51 day old rats in experiment 2 (12 days after the second injection). In the GGY-immunized rat groups, IgG antibody levels to GGY (experiment 1=21.9+17.8 EU; experiment 2=108.0±4.0 EU) were elevated above those of the sham-immunized groups (experiment 1=1.7±0.2 EU; experiment 2=4.0±3.0 EU) in both experiments and reached statistical significance (p<0.002) in experiment 2.

[2] = tested on: inducing peptide construct; experiment: ELISA of salivary IgA antibody to the inducing (homologous) peptide construct in immunized rats; type: in vivo, Sprague Dawley rats; conditions: for rats with significant levels of salivary IgA antibody: GGY- and AND-injected rats counted together
Procedure: as §1, §2, §3, §4

[3] = tested on: S. sobrinus GTF; experiment: ELISA of serum IgG antibody reacting with intact S. sobrinus GTF; type: in vivo; conditions: 63 day sera, FIG. 3; for IgG antibody reactivity with intact S. sobrinus GTF: n=4-5 per group
From the text: (§5) Glucosyltransferases: Glucosyltransferases (GTF) from S. sobrinus strain 6715 were purified from culture supernatants after bacterial growth in glucose-containing defined media, as described in Taubman et al. (J. Oral Pathol. 17:466-470 (1988)). Enzymes were separated from other culture supernatant proteins by affinity chromatography on Sephadex G-100 (Pharmacia Fine Chemicals), using 6M guanidine HCl as the eluting solvent. GTFs were then obtained from the guanidine HCl eluate by FPLC chromatography on Superose 6 (Pharmacia) using 6M guanidine for elution. GTF preparations contained a mixture of GTF-I, GTF-Sd, and GTF-Si.
as §1, §2

[4] = biological target: T1, CAT peptide construct (Streptococcus mutans serotype c, UniProt P08987); experiment: Cross-reactivity ELISA, plates coated with CAT peptide construct; type: binding; conditions: day 63 sera; FIG. 4
T1 construct: residues 442-462 of S. mutans GTF-B; purchased Applied Diagnostics, Foster City, Calif; host or cells: chemical solid phase synthesis
Procedure: as §1
(§6) ELISA: Serum IgG and salivary IgA antibodies were tested by enzyme-linked immunosorbent assay (ELISA). Polystyrene microtiter plates (Flow Laboratories) were coated with […] of each peptide construct or 0.5 μg of S. sobrinus GTF. Antibody activity was then measured by incubation with 1:100 to 1:10^6 dilutions of sera, or 1:4 to 1:32 dilutions of saliva. […] Reactivity was recorded as absorbance (A405 nm) in a micro plate reader (Biotek Instruments). Data are reported as absorbance (A405 nm), reciprocal titer, or as ELISA units (EU) which were calculated relative to the levels of appropriate reference sera or salivas from Sprague Dawley rats thrice immunized with the respective peptide construct. […]

[5] = biological target: T2, GGY peptide construct (Streptococcus mutans serotype c, UniProt P08987); experiment: Cross-reactivity ELISA, plates coated with GGY peptide construct; type: binding; conditions: day 63 sera; FIG. 4
T2 construct: GGY and AND were 19-mer peptides; purchased Applied Diagnostics, Foster City, Calif; host or cells: chemical solid phase synthesis
Procedure: as §1, §6

[6] = tested on: S. sobrinus GTF; experiment: Antibody inhibition of glucan synthesis (filter assay, 14C glucose incorporation into water-insoluble glucan); type: biochemical, S. sobrinus strain 6715
From the text: as §5
Antibody Inhibition of Glucan Synthesis: Selected rat sera were evaluated for their ability to inhibit glucan synthesis catalyzed by S. sobrinus GTF, using a filter assay. Ten μl volumes of sera (1:100 dilutions in 0.02M sodium phosphate buffered saline and 0.02% sodium azide [PBSA], pH 6.5) were preincubated with the respective GTF for 1 hour at 37° C. in a total volume of 0.04 ml PBSA. Then 1.7 mg sucrose, 44 nCi of [^14C-glucose]-sucrose (approximately 100,000 cpm) were added in 0.2 ml PESA in the presence of 37 μg of dextran T10 (Pharmacia). Incubation proceeded for 18 hours at 37° C., after which water-insoluble glucan was collected on Whatman GF/F glass fiber filters, washed with PBSA, and radioactivity determined as described in Smith et al. (Infect. Immunity 62:5470-5476 (1994)).

[7] = tested on: S. mutans SJ32; experiment: Protection experiments: caries assessment (modified Keyes method) after S. mutans infection; type: in vivo, Sprague-Dawley rats; conditions: both experiments
From the text: Experimental Protocol for Protection Experiments: Animals used in the present experiments were derived from germ-free Sprague-Dawley rats that had been reared in the isolator facility of Charles River Laboratories, Wilmington, Mass. (Area 051). […] These rats served as initial breeding stock for dams used in these experiments and were regularly monitored for absence of mutans streptococci. The progeny of the dams used for the present experiments were weaned at approximately 21 days and were subsequently fed high sucrose Diet 2000.
as §3
Caries assessment: The extent and depth of carious lesions in all rat molar teeth (caries score) were microscopically evaluated by a modified Keyes method as previously described (Taubman et al., J. Immunol. 118:710-720 (1977)). Caries scores were determined separately on smooth and on sulcal dental surfaces.

[8] = biological target: T3, AND peptide construct (Streptococcus mutans serotype c, UniProt P08987); experiment: Cross-reactivity ELISA, plates coated with AND peptide construct; type: binding; conditions: day 63 sera; FIG. 4
T3 construct: GGY and AND were 19-mer peptides; purchased Applied Diagnostics, Foster City, Calif; host or cells: chemical solid phase synthesis
T3 sequence (P08987 whole entry, looked up): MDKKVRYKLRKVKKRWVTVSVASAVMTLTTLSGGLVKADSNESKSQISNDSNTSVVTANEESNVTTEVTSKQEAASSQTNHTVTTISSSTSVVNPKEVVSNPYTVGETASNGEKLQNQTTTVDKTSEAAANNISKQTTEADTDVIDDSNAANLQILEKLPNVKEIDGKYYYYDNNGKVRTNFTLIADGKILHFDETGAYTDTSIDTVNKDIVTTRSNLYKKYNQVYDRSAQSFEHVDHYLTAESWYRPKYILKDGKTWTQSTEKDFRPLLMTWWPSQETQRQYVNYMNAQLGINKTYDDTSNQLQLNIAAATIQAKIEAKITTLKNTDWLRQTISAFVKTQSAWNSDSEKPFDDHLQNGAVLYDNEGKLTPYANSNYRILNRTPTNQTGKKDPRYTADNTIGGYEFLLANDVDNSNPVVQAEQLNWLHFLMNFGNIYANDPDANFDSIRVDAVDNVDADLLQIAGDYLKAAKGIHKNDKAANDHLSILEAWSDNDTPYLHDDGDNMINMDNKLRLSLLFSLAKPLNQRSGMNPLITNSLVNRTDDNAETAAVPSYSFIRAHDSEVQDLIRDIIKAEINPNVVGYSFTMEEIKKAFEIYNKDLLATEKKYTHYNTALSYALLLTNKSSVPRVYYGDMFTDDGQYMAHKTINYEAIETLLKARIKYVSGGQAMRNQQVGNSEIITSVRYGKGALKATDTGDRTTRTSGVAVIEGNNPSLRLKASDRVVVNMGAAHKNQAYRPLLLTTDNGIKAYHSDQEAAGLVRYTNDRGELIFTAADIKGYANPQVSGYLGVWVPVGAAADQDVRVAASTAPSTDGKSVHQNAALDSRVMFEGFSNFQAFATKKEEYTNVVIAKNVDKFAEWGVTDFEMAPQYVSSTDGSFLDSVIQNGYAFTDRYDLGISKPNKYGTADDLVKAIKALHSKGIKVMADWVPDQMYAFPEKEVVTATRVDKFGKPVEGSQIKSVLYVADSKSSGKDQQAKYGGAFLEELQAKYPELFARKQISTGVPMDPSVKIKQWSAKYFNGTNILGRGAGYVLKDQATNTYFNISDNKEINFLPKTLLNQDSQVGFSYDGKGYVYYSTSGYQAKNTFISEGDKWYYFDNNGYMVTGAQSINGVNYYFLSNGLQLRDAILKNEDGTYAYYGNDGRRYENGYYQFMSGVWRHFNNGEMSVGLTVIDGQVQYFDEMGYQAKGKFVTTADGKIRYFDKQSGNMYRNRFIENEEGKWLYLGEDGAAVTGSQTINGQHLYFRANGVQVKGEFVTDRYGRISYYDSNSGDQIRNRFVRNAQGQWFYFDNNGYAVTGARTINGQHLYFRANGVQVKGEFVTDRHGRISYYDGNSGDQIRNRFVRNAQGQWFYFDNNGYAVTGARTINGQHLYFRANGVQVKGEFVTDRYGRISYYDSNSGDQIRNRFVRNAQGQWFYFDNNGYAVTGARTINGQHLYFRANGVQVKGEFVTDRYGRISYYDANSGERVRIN
Procedure: as §1, §6

[9] = tested on: experimental dental caries; conditions: Taubman et al. Infect. Immun. 63:3088-3093 (1995); protocol similar to experiment 1; cited from earlier work
[10] = tested on: anti-GGY serum; experiment: Epitope mapping by ELISA inhibition, anti-GGY serum on GGY-coated plates; type: binding, rat; conditions: anti-GGY serum preincubated with heptamer or intact peptide; FIG. 8
Procedure: Epitope Mapping: B cell epitopes were mapped on the GGY and AND peptides by an ELISA inhibition technique. Anti-GGY or anti-AND sera were preincubated with 13 separate heptamers representing the incremental peptide sequence of the respective peptide, or with intact peptide, followed by the conventional ELISA with intact peptide-coated plates. B cell epitopes were indicated by a significant reduction in absorbance.

[11] = protection experiment 1, pre-infection

ANDVDNSNPVVQ [SAND]
immunogenicity (percentage of animals responding and titer of responding sera) ([1]; immunogenicity experiment): weakly immunogenic

ANDVDNSNPVVQAEQLNWL
immunogenicity (percentage of animals responding and titer of responding sera) ([1]; immunogenicity experiment): at least as high as observed for the positive control CAT peptide
effect of subsequent immunization on serum IgG titers ([1]; immunogenicity experiment, day 21 (one injection) vs day 63 (three injections)): increased serum IgG titers in all AND-injected rats
serum IgG antibody to the inciting antigen after the first injection ([1]; immunogenicity experiment, rats 43 days old at start, 50 μg sc in CFA, day 21): induced serum IgG antibody to the inciting antigen after the first injection in all rats
Serum IgG antibody levels to the AND construct [1, 11]: not significantly elevated
levels of serum IgG antibody (in words) ([1]; protection experiment 1, weanling rats, two injections eight days apart, bled 14 days after onset (day 39 of life)): little detectable antibody
rats with significant levels of salivary IgA antibody ([2]; day 21 (one injection)): 7/9
rats with significant levels of salivary IgA antibody ([2]; day 63 (three injections)): 8/9
salivary IgA antibody levels to the AND construct [2, 11]: not significantly elevated
IgG antibody reactivity with intact S. sobrinus GTF [3]: significant reactivity with GTF
GTF reactivity compared with antibody induced by the other peptides [3]: significantly more reactive with GTF
reaction of serum IgG antibody with the CAT peptide [4]: low but significant reaction
reaction of antisera with the GGY peptide construct [5]: reaction with antisera induced by AND was observed
inhibition of formation of water-insoluble glucan from sucrose by S. sobrinus GTF (in words) ([6]; 63 day sera from injected rats, AND p<0.01, FIG. 5): inhibited GTF activity
level of inhibitory activity compared with other immunogens ([6]; 63 day sera, AND vs CAT p<0.02): exceeded that observed with sera from rats similarly immunized with CAT
mean and median total, smooth surface, and occlusal caries scores vs sham-injected group [7]: lower than the respective scores of the sham-injected group

CAT: 21-mer peptide containing Asp 451, residues 442-462 of S. mutans GTF-B; positive control (DANFDSIRVDAVDNVDADLLQ) [reference compound]
IgG antibody reactivity with intact S. sobrinus GTF [3]: significant reactivity with GTF
reaction of serum IgG antibody with the AND peptide construct [8]: significant reaction
protective effect against experimental dental caries [9]: a significant protective effect was shown

FLLANDV
inhibition of GGY antibody binding to intact peptide-coated plates [10]: significantly inhibited

LLANDVD
inhibition of GGY antibody binding to intact peptide-coated plates [10]: significantly inhibited
